According to US4649143A, “Methods and compositions for treating protozoal infections with a novel antibiotic” (priority 1984, dated 1987):
Converted amounts (≈) assume the structure as drawn.

Tests used:
Eimeria tenella = experiment: Anticoccidial evaluation in infected chicks, intestinal lesions; type: in vivo, Eimeria tenella; chicks; settings: for Percent Chicks with Reduced Lesions E. tenella: 7 days after inoculation
Experimental: (§1) The poultry diet employed in the test is as follows: The vitamin-amino acid premix in the above feed composition is prepared from the following formulation. The expressions of quantity relate to units per kilogram of the finished feed composition. A mixed inoculum of 5000 sporulated oocysts of Eimeria acervulina and a sufficient number of oocysts of Eimeria tenella to produce 60% to 75% mortality in untreated controls were given to one-day-old chicks, by direct inoculation into the crops of all chicks. The chicks were given free access to feed and water during the entire test period. Two days before inoculation, medicated feed with several levels of drug was presented to the various groups of chicks. Seven days after inoculation, the tests were terminated and the chicks were weighed, necropsied, and their intestinal tracts examined for lesions.

gram-positive bacteria = experiment: In vitro antimicrobial spectrum, summary; type: cell-based
Experimental: (§2) The in vitro antimicrobial spectrum of LL-D42067β was determined by the agar plate dilution method with Mueller-Hinton agar and an inoculum of each test organism of approximately 10^4 colony forming units delivered by the Steers replicating device. The minimal inhibitory concentration (MIC) in mcg/ml was defined as the lowest concentration of LL-D42067β that inhibited visible growth after 18 hours incubation at 35° C.

yeasts = experiment: In vitro antimicrobial spectrum, summary; type: cell-based
Experimental: as §2

[1] = tested on: Staphylococcus epidermidis; experiment: In vitro antimicrobial spectrum, agar plate dilution MIC; type: cell-based; settings: CMC 83-56, Mueller-Hinton agar, 18 hours, 35° C.
Experimental: as §2

Streptococcus sanguis = experiment: as above; type: cell-based; settings: G9B (a), Mueller-Hinton agar, 18 hours, 35° C.
Experimental: as §2

Streptococcus faecalis = experiment: as above; type: cell-based; settings: Enterococcus faecalis, ATCC29212; ATCC 29212; Mueller-Hinton agar, 18 hours, 35° C.
Experimental: as §2

Micrococcus luteus = experiment: as above; type: cell-based; settings: PC 1001, Mueller-Hinton agar, 18 hours, 35° C.
Experimental: as §2

Bacillus subtilis = experiment: as above; type: cell-based; settings: ATCC6633, ATCC 6633, Mueller-Hinton agar, 18 hours, 35° C.
Experimental: as §2

Enterococcus = experiment: as above; type: cell-based; settings: 18 h, 35° C.
Experimental: as §2

Staphylococcus aureus = experiment: as above; type: cell-based; settings: 18 h, 35° C.
Experimental: as §2

Bacillus cereus = experiment: as above; type: cell-based; settings: LL No. 4, Mueller-Hinton agar, 18 hours, 35° C.
Experimental: as §2

Solubility in water = type: physicochemical; settings: compound and its acceptable salts
Eimeria acervulina = experiment: Anticoccidial evaluation in infected chicks, intestinal lesions; type: in vivo, Eimeria acervulina; chicks; settings: 0.5 ppm to 5.0 ppm in diet
Experimental: as §1

[2] = tested on: Eimeria acervulina and Eimeria tenella (mixed inoculum); experiment: Anticoccidial evaluation in infected chicks, survival; type: in vivo, Eimeria tenella; chicks; settings: for Percent Survival: chicks, 7 days after inoculation
Experimental: as §1

## COc1c2c(c(O)c3c(=O)c4c(oc13)[C@@H](O)CC[C@@H]4O)-c1c3c(c4cc(C)[nH]c(=O)c4c1O)OCO[C@H]3C2 (relative stereo) [LL-D42067β]
Eimeria tenella; 0.5 ppm to 5.0 ppm in diet
  suppression of lesions due to E. tenella: significant suppression of lesions
Eimeria tenella; 0.5 ppm in diet
  Percent Chicks with Reduced Lesions E. tenella: 0%
Eimeria tenella; 0.75 ppm in diet
  Percent Chicks with Reduced Lesions E. tenella: 40%
Eimeria tenella; 1.00 ppm in diet
  Percent Chicks with Reduced Lesions E. tenella: 80%
Eimeria tenella; 2.5 ppm in diet
  Percent Chicks with Reduced Lesions E. tenella: 100%
Eimeria tenella; 5.0 ppm in diet
  Percent Chicks with Reduced Lesions E. tenella: 100%
gram-positive bacteria
  activity versus gram-positive bacteria: active
yeasts
  activity against yeasts: moderately active
[1]
  MIC: 0.5 µg/mL (≈ 0.959 µM)
Streptococcus sanguis
  MIC: 0.5 µg/mL (≈ 0.959 µM)
Streptococcus faecalis
  MIC: 1 µg/mL (≈ 1.92 µM)
Micrococcus luteus
  MIC: ≤ 0.06 µg/mL
Bacillus subtilis
  MIC: 4 µg/mL (≈ 7.67 µM)
Enterococcus; OSU 75-1, Mueller-Hinton agar
  MIC: 1 µg/mL (≈ 1.92 µM)
Enterococcus; SM 77-15, Mueller-Hinton agar
  MIC: 2 µg/mL (≈ 3.84 µM)
Staphylococcus aureus; LL No. 14, Mueller-Hinton agar
  MIC: 0.5 µg/mL (≈ 0.959 µM)
Staphylococcus aureus; LL No. 27, Mueller-Hinton agar
  MIC: ≤ 0.06 µg/mL
Staphylococcus aureus; Smith, Mueller-Hinton agar
  MIC: 0.5 µg/mL (≈ 0.959 µM)
Bacillus cereus
  MIC: ≤ 0.06 µg/mL
Solubility in water
  solubility in water: relatively insoluble in water
Eimeria acervulina
  suppression of lesions due to E. acervulina: significant suppression of lesions
[2]; 0.5 ppm to 5.0 ppm in diet
  survival of infected chicks: improved survival
[2]; 0.5 ppm in diet
  Percent Survival: 40%
[2]; 0.75 ppm in diet
  Percent Survival: 60%
[2]; 1.00 ppm in diet
  Percent Survival: 80%
[2]; 2.5 ppm in diet
  Percent Survival: 100%
[2]; 5.0 ppm in diet
  Percent Survival: 80%
